Source: ChEMBL document CHEMBL3734705, “Synthesis and in vitro cytotoxicity of novel C-12 substituted-14-deoxy-andrographolide derivatives as potent anti-cancer agents” (2015)

Experiments:
[1] = Cytotoxicity against human PC3 cells assessed as growth level at 10 uM after 48 hrs by SRB assay; assay type: functional, PC-3
SK-MEL-28 [2] = experiment: Cytotoxicity against human SK-MEL-28 cells assessed as growth inhibition at 10 uM after 48 hrs by SRB assay; assay type: functional; conditions: SK-MEL-28, 48 h, read-out: GI
[3] = Cytotoxicity against human NCI-ADR-RES cells assessed as growth inhibition at 10 uM after 48 hrs by SRB assay; assay type: functional; conditions: read-out: GI
[4] = Cytotoxicity against human BT549 cells assessed as growth level at 10 uM after 48 hrs by SRB assay; assay type: functional, BT-549
MCF7 = experiment: Cytotoxicity against human MCF7 cells assessed as growth level at 10 uM after 48 hrs by SRB assay; assay type: functional
[5] = Cytotoxicity against human SF539 cells assessed as growth level at 10 uM after 48 hrs by SRB assay; assay type: functional, SF-539
M14 [6] = experiment: Cytotoxicity against human M14 cells assessed as growth inhibition at 10 uM after 48 hrs by SRB assay; assay type: functional; conditions: M14, 48 h, read-out: GI
M14 [7] = experiment: Cytotoxicity against human M14 cells assessed as growth level at 10 uM after 48 hrs by SRB assay; assay type: functional
K562 = experiment: Cytotoxicity against human K562 cells assessed as growth level at 10 uM after 48 hrs by SRB assay; assay type: functional
[8] = Cytotoxicity against human HOP62 cells assessed as growth inhibition at 10 uM after 48 hrs by SRB assay; assay type: functional; conditions: HOP-62, 48 h, read-out: GI
[9] = Cytotoxicity against human RXF393 cells assessed as growth inhibition at 10 uM after 48 hrs by SRB assay; assay type: functional; conditions: RXF 393, 48 h, read-out: GI
[10] = Cytotoxicity against human UACC257 cells assessed as growth inhibition at 10 uM after 48 hrs by SRB assay; assay type: functional; conditions: UACC-257, 48 h, read-out: GI
MDA-MB-231 [11] = experiment: Cytotoxicity against human MDA-MB-231 cells assessed as growth level at 10 uM after 48 hrs by SRB assay; assay type: functional
[12] = Cytotoxicity against human UO31 cells assessed as growth inhibition at 10 uM after 48 hrs by SRB assay; assay type: functional; conditions: UO-31, 48 h, read-out: GI
U-251 = experiment: Cytotoxicity against human U251 cells assessed as growth inhibition at 10 uM after 48 hrs by SRB assay; assay type: functional; conditions: U-251, 48 h, read-out: GI
SK-MEL-28 [13] = experiment: Cytotoxicity against human SK-MEL-28 cells assessed as growth level at 10 uM after 48 hrs by SRB assay; assay type: functional
A549 [14] = experiment: Cytotoxicity against human A549 cells assessed as growth level at 10 uM after 48 hrs by SRB assay; assay type: functional
[15] = Cytotoxicity against human DU145 cells assessed as growth level at 10 uM after 48 hrs by SRB assay; assay type: functional, DU-145
A498 = experiment: Cytotoxicity against human A498 cells assessed as growth inhibition at 10 uM after 48 hrs by SRB assay; assay type: functional; conditions: A498, 48 h, read-out: GI
[16] = Cytotoxicity against human SNB75 cells assessed as growth inhibition at 10 uM after 48 hrs by SRB assay; assay type: functional; conditions: SNB-75, 48 h, read-out: GI
EKVX = experiment: Cytotoxicity against human EKVX cells assessed as growth inhibition at 10 uM after 48 hrs by SRB assay; assay type: functional; conditions: read-out: GI
786-0 = experiment: Cytotoxicity against human 786-0 cells assessed as growth inhibition at 10 uM after 48 hrs by SRB assay; assay type: functional; conditions: 786-0, 48 h, read-out: GI
NCI-H460 = experiment: Cytotoxicity against human NCI-H460 cells assessed as growth level at 10 uM after 48 hrs by SRB assay; assay type: functional
[17] = Cytotoxicity against human SF295 cells assessed as growth level at 10 uM after 48 hrs by SRB assay; assay type: functional, SF-295
[18] = Cytotoxicity against human HCT116 cells assessed as growth inhibition at 10 uM after 48 hrs by SRB assay; assay type: functional; conditions: HCT-116, 48 h, read-out: GI
[19] = Cytotoxicity against human SKOV3 cells assessed as growth level at 10 uM after 48 hrs by SRB assay; assay type: functional, SK-OV-3
[20] = Cytotoxicity against human HCT15 cells assessed as growth level at 10 uM after 48 hrs by SRB assay; assay type: functional, HCT-15
[21] = Cytotoxicity against human Caki1 cells assessed as growth inhibition at 10 uM after 48 hrs by SRB assay; assay type: functional; conditions: CAKI-1, 48 h, read-out: GI
[22] = Cytotoxicity against human Hs578T cells assessed as growth inhibition at 10 uM after 48 hrs by SRB assay; assay type: functional; conditions: Hs-578T, read-out: GI
[23] = Cytotoxicity against human HL-60(TB) cells assessed as growth level at 10 uM after 48 hrs by SRB assay; assay type: functional
[24] = Cytotoxicity against human OVCAR3 cells assessed as growth inhibition at 10 uM after 48 hrs by SRB assay; assay type: functional; conditions: OVCAR-3, 48 h, read-out: GI
ACHN = experiment: Cytotoxicity against human ACHN cells assessed as growth level at 10 uM after 48 hrs by SRB assay; assay type: functional
[25] = Cytotoxicity against human COLO205 cells assessed as growth inhibition at 10 uM after 48 hrs by SRB assay; assay type: functional; conditions: COLO 205, 48 h, read-out: GI
NCI-H226 = experiment: Cytotoxicity against human NCI-H226 cells assessed as growth level at 10 uM after 48 hrs by SRB assay; assay type: functional
KM12 = experiment: Cytotoxicity against human KM12 cells assessed as growth inhibition at 10 uM after 48 hrs by SRB assay; assay type: functional; conditions: KM12, 48 h, read-out: GI
[26] = Cytotoxicity against human OVCAR4 cells assessed as growth inhibition at 10 uM after 48 hrs by SRB assay; assay type: functional; conditions: OVCAR-4, 48 h, read-out: GI
MDA-MB-231 [27] = experiment: Cytotoxicity against human MDA-MB-231 cells assessed as growth inhibition at 10 uM after 48 hrs by SRB assay; assay type: functional; conditions: MDA-MB-231, 48 h, read-out: GI
[28] = Cytotoxicity against human SNB19 cells assessed as growth inhibition at 10 uM after 48 hrs by SRB assay; assay type: functional; conditions: SNB-19, 48 h, read-out: GI
[29] = Cytotoxicity against human OVCAR3 cells assessed as growth level at 10 uM after 48 hrs by SRB assay; assay type: functional, OVCAR-3
A549 [30] = experiment: Cytotoxicity against human A549 cells assessed as growth inhibition at 10 uM after 48 hrs by SRB assay; assay type: functional; conditions: A549, 48 h, read-out: GI
T47D = experiment: Cytotoxicity against human T47D cells assessed as growth inhibition at 10 uM after 48 hrs by SRB assay; assay type: functional; conditions: read-out: GI
SN12C = experiment: Cytotoxicity against human SN12C cells assessed as growth inhibition at 10 uM after 48 hrs by SRB assay; assay type: functional; conditions: read-out: GI
NCI-H522 = experiment: Cytotoxicity against human NCI-H522 cells assessed as growth level at 10 uM after 48 hrs by SRB assay; assay type: functional
[31] = Cytotoxicity against human TK10 cells assessed as growth inhibition at 10 uM after 48 hrs by SRB assay; assay type: functional; conditions: TK-10, 48 h, read-out: GI

C=C1CC[C@@H]2[C@](C)(COC(C)=O)[C@H](OC(C)=O)CC[C@@]2(C)[C@@H]1CC(NCc1ccccc1)C1=CCOC1=O (mixture of isomers)
Activity [1]: 10.07%
inhibition of growth at 10 µM (SK-MEL-28 [2]): 31.4%
inhibition of growth at 10 µM [3]: 76.5%
Activity [4]: 28.11%
Activity (MCF7): 29.82%
Activity [5]: 79.48%
inhibition of growth at 10 µM (M14 [6]): 57.9%
Activity (M14 [7]): 42.07%
Activity (K562): 24.65%
inhibition of growth at 10 µM [8]: 11%
inhibition of growth at 10 µM [9]: 25.7%
inhibition of growth at 10 µM [10]: 67.2%
Activity (MDA-MB-231 [11]): 64.69%
inhibition of growth at 10 µM [12]: 70.9%
inhibition of growth at 10 µM (U-251): 52.4%
Activity (SK-MEL-28 [13]): 68.59%
Activity (A549 [14]): 49.21%
Activity [15]: 67.16%
inhibition of growth at 10 µM (A498): 43.8%
inhibition of growth at 10 µM [16]: 23.1%
inhibition of growth at 10 µM (EKVX): 46.1%
inhibition of growth at 10 µM (786-0): 28.6%
Activity (NCI-H460): 48.43%
Activity [17]: 63.88%
inhibition of growth at 10 µM [18]: 57.7%
Activity [19]: 79.25%
Activity [20]: 40.99%
inhibition of growth at 10 µM [21]: 50.4%
inhibition of growth at 10 µM [22]: 13.6%
Activity [23]: -9.93%
inhibition of growth at 10 µM [24]: 68.2%
Activity (ACHN): 46.39%
inhibition of growth at 10 µM [25]: 54.4%
Activity (NCI-H226): 11.36%
inhibition of growth at 10 µM (KM12): 60.9%
inhibition of growth at 10 µM [26]: 64.1%
inhibition of growth at 10 µM (MDA-MB-231 [27]): 35.3%
inhibition of growth at 10 µM [28]: 31.8%
Activity [29]: 31.82%
inhibition of growth at 10 µM (A549 [30]): 50.8%
inhibition of growth at 10 µM (T47D): 85.8%
inhibition of growth at 10 µM (SN12C): 41.8%

C=C1CC[C@@H]2[C@](C)(COC(C)=O)[C@H](OC(C)=O)CC[C@@]2(C)[C@@H]1CC(NCCCCCCCC)C1=CCOC1=O (mixture of isomers)
Activity [1]: 33.69%
inhibition of growth at 10 µM (SK-MEL-28 [2]): 14.4%
Activity (NCI-H522): 64.41%
inhibition of growth at 10 µM [3]: 12.3%
Activity [4]: 69.6%
Activity (MCF7): 68.8%
Activity [5]: 89.25%
inhibition of growth at 10 µM (M14 [6]): 24.1%
Activity (M14 [7]): 75.91%
inhibition of growth at 10 µM [31]: 17.3%
Activity (K562): 34.66%
inhibition of growth at 10 µM [8]: 8.03%
inhibition of growth at 10 µM [9]: 14.3%
inhibition of growth at 10 µM [10]: 38.9%
Activity (MDA-MB-231 [11]): 70.83%
inhibition of growth at 10 µM [12]: 43.9%
inhibition of growth at 10 µM (U-251): 44.5%
Activity (SK-MEL-28 [13]): 85.58%
Activity (A549 [14]): 67.24%
Activity [15]: 88.73%
inhibition of growth at 10 µM (A498): 35.7%
inhibition of growth at 10 µM [16]: 25.4%
inhibition of growth at 10 µM (EKVX): 24.3%
inhibition of growth at 10 µM (786-0): 20.1%
Activity (NCI-H460): 52.67%
Activity [17]: 81%
inhibition of growth at 10 µM [18]: 64.1%
Activity [19]: 77.13%
Activity [20]: 66.95%
inhibition of growth at 10 µM [21]: 31.3%
inhibition of growth at 10 µM [22]: 16.9%
Activity [23]: 58.93%
inhibition of growth at 10 µM [24]: 51%
Activity (ACHN): 85.98%
inhibition of growth at 10 µM [25]: 29.2%
Activity (NCI-H226): 65.82%
inhibition of growth at 10 µM (KM12): 31.4%
inhibition of growth at 10 µM [26]: 47.7%
inhibition of growth at 10 µM (MDA-MB-231 [27]): 29.2%
inhibition of growth at 10 µM [28]: 21.2%
Activity [29]: 48.95%
inhibition of growth at 10 µM (A549 [30]): 32.8%
inhibition of growth at 10 µM (T47D): 42%
inhibition of growth at 10 µM (SN12C): 26.9%
